ChEMBL document CHEMBL1201862, “PubChem BioAssay data set” (2004)
Each block holds one compound with its values, some of them ahead of it. Activity calls are given as the source filed them.

Columns and labels:
[1] = target: Cytochrome P450 2C9 (Homo sapiens, UniProt P11712)
[2] = target: Cytochrome P450 2D6 (Homo sapiens, UniProt P10635);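 also: CYP2D6 member of a cytochrome P450 panel assay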
[3] = target: T1, Calpain-2 catalytic subunit (Sus scrofa, UniProt P43367); experiment: pig calpain II inhibitor potency, dose response, biochemical, fluorogenic peptide substrate (AID 1420); assay type: functional
T1 sequence (P43367 whole entry): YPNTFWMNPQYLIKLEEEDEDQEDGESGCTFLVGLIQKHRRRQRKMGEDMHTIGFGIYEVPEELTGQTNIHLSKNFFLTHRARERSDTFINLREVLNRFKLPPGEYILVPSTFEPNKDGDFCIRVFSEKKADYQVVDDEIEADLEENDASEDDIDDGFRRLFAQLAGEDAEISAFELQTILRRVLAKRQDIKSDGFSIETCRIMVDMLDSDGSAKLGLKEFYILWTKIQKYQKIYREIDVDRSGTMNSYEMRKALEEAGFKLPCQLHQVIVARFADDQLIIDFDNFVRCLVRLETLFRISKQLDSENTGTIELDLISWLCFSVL

[4] = target: Trypsin (Sus scrofa, UniProt P00761); experiment: porcine trypsin inhibitors, dose response, selectivity assay for Rce1 protease inhibitor project, biochemical, quenched peptide fluorescence, cherry-pick (AID 488789)
[5] = target: CAAX prenyl protease 2 (Saccharomyces cerevisiae S288c, UniProt Q03530); assay type: biochemical
[6] = target: T2, Caspase-3 (Homo sapiens, UniProt P42574); assay type: functional;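 also: Dose-response selectivity test against caspase-3 for candidate inhibitors of sentrin-specific proteases (SENPs)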
T2 sequence (P42574 whole entry): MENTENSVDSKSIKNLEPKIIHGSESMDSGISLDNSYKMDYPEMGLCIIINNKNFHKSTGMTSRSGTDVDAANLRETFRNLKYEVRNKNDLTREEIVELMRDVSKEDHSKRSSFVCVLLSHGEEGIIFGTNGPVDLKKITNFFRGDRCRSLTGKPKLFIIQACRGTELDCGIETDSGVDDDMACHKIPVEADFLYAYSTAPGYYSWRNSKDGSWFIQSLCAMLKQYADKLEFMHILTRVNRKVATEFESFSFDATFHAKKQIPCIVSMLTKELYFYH

[7] = target: T3, Sentrin-specific protease 7 (Homo sapiens, UniProt Q9BQF6); assay type: functional;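 also: Luminescence-based dose-response confirmation of ultra-high-throughput screening hits, measuring inhibition of SENP7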
T3 sequence (Q9BQF6 whole entry): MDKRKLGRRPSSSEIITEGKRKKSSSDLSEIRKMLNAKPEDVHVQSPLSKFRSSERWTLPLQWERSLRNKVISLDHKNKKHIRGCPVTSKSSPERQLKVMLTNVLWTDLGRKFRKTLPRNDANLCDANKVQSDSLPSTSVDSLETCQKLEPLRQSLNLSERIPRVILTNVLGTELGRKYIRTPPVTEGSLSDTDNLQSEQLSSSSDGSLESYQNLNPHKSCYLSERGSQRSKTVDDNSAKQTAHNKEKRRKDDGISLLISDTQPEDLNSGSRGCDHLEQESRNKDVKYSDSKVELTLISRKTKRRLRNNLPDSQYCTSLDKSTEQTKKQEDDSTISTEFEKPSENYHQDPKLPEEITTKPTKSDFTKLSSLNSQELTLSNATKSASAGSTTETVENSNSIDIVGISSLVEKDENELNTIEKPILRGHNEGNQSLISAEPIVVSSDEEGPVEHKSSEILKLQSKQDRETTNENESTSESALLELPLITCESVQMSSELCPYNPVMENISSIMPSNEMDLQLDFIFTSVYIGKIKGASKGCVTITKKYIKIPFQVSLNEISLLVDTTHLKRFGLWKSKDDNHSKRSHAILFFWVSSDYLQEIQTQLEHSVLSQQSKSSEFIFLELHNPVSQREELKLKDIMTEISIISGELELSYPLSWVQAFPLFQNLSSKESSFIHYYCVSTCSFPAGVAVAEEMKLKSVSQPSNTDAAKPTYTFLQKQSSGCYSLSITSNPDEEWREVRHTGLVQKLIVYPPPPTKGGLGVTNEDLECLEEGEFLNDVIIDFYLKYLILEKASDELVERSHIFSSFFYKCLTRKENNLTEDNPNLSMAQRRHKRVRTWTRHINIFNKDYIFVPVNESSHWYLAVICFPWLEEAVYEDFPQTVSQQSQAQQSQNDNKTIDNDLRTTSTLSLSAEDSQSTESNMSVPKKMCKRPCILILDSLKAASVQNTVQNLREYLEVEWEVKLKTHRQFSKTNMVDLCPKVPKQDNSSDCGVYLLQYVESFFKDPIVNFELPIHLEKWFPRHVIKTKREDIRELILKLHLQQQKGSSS

[8] = target: T4, Sentrin-specific protease 6 (Homo sapiens, UniProt Q9GZR1); assay type: functional;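 also: Luminescence-based dose-response confirmatory assay of SENP6 inhibition, following up an ultra-high-throughput screen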
T4 sequence (Q9GZR1 whole entry): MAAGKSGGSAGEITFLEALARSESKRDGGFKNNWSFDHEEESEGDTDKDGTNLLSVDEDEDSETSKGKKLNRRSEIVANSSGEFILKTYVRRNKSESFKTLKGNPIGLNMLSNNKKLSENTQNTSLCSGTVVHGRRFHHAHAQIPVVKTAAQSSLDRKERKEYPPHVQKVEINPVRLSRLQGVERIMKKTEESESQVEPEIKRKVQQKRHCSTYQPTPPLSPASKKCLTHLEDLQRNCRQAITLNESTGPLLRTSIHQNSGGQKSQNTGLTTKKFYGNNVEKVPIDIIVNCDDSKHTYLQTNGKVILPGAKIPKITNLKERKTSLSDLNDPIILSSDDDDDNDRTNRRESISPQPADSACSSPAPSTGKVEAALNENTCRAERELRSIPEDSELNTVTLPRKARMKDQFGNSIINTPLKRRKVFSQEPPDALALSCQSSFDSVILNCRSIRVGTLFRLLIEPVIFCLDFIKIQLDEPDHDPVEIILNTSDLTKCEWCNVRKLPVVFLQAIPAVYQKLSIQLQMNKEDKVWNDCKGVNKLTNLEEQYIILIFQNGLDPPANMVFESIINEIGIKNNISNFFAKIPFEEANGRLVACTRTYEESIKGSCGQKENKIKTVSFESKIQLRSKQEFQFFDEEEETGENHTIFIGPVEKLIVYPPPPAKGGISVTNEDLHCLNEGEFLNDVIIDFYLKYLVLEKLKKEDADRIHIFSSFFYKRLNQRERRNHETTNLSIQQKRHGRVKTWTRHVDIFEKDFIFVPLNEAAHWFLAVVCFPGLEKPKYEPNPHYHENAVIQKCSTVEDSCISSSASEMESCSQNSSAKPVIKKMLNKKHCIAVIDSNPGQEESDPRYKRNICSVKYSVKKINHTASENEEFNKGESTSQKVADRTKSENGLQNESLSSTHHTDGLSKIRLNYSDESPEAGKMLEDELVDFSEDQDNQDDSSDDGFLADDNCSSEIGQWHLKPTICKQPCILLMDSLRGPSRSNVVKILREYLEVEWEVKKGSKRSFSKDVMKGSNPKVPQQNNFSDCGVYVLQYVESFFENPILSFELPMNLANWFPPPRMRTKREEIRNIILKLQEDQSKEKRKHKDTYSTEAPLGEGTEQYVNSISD

[9] = target: FAD-linked sulfhydryl oxidase ALR (Homo sapiens, UniProt P55789); experiment: inhibitors of human ALR sulfhydryl oxidase, dose response, biochemical, H2O2 detection, luminescence, cherry-pick (AID 493248)
[10] = target: T5, Sentrin-specific protease 8 (Homo sapiens, UniProt Q96LD8); assay type: functional;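 also: luminescence read-out of SENP8 inhibition, dose-response confirmation following an ultra-high-throughput screen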
T5 sequence (Q96LD8 whole entry): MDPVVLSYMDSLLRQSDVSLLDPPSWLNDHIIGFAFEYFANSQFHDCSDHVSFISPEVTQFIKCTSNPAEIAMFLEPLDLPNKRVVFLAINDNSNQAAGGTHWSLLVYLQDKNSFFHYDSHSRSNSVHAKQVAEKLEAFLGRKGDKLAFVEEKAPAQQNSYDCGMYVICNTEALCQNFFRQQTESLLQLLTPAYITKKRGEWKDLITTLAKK

[11] = target: CAAX prenyl protease 1 (Saccharomyces cerevisiae S288c, UniProt P47154); experiment: Ste24 protease inhibitors, dose response, biochemical, S. cerevisiae, plate reader, cherry-pick (AID 488815)
[12] = target: Genome polyprotein (dengue virus type 2, UniProt P29990); experiment: Dengue-2 NS5 methyltransferase inhibitors, primary screen, biochemical, confirmation dose response (AID 588689); assay type: functional
[13] = target: CAAX prenyl protease 2 (Homo sapiens, UniProt Q9Y256); experiment: human Rce1 protease inhibitors, dose response, biochemical, yeast membranes, quenched-peptide fluorescence, cherry-pick (AID 588849)
[14] = system: HEK293; experiment: NOD1 signaling inhibitors, primary screen, cell-based, luminescence, uHTS (AID 1578); assay type: functional; details: Homo sapiens
[15] = system: HEK293; experiment: cells; assay type: functional, cell-based; details: Homo sapiens
[16] = system: HEK293; experiment: cells; assay type: functional, cell-based; details: Homo sapiens; remark: listed apart in the source
[17] = target: Nucleotide-binding oligomerization domain-containing protein 2 (Homo sapiens, UniProt Q9HC29); experiment: NOD2 signaling inhibitors, cell-based, luminescence, uHTS, HEK293 (AID 1566); assay type: functional
[18] = system: HEK293; experiment: NOD2 signaling inhibitors in MDP-stimulated cells, cell-based, uHTS, luminescence (AID 2001); assay type: functional; details: Homo sapiens
[19] = system: HEK293; experiment: cells; assay type: functional, cell-based; details: Homo sapiens; remark: listed apart in the source
[20] = target: Induced myeloid leukemia cell differentiation protein Mcl-1 (Homo sapiens, UniProt Q07820); assay type: functional
[21] = target: Tumor necrosis factor (Homo sapiens, UniProt P01375); experiment: TNFa-triggered NF-kB activation inhibitors, SAR follow-up, cell-based, revised (AID 2337); assay type: functional
[22] = target: Nucleotide-binding oligomerization domain-containing protein 1 (Homo sapiens, UniProt Q9Y239); experiment: NOD1 signaling inhibitors, SAR follow-up, revised (AID 2333); assay type: functional
[23] = cytotoxicity in HEK-293T cells, dose response, cytotoxicity control for TCR NF-kB inhibitor project, luminescence, T-cell screen hits (AID 489026); assay type: functional, cell-based;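 also: cells exposed to compound about 14 hours before the viability readout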
[24] = system: HEK293; experiment: cells; details: Homo sapiens

Chain of Nucleotide-binding oligomerization domain-containing protein 1 (Q9Y239 whole entry, the tested form may be a part): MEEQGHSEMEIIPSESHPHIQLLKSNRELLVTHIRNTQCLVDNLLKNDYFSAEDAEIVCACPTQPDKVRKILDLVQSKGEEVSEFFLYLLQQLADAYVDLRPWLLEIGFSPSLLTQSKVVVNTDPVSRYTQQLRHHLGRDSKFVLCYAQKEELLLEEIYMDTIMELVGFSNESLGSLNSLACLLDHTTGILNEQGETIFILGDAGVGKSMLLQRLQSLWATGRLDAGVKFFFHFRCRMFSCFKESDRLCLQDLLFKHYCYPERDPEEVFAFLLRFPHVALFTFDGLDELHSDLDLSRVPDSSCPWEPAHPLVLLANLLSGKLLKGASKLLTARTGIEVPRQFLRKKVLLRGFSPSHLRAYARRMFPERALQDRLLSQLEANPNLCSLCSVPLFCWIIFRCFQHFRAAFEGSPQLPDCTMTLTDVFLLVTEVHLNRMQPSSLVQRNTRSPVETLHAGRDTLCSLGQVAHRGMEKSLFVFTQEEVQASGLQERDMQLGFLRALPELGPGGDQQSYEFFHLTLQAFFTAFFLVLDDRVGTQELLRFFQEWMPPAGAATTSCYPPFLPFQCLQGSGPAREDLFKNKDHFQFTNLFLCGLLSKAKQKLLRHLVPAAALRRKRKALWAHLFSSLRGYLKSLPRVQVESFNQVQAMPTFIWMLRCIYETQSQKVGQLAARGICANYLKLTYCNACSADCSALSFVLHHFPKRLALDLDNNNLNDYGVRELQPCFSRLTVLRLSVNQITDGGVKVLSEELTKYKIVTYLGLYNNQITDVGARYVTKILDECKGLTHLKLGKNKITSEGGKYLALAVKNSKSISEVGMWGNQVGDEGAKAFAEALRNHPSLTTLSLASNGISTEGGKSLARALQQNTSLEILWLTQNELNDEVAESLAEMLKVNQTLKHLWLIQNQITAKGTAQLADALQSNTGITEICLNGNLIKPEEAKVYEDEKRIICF
Chain of Cytochrome P450 2D6 (P10635 whole entry): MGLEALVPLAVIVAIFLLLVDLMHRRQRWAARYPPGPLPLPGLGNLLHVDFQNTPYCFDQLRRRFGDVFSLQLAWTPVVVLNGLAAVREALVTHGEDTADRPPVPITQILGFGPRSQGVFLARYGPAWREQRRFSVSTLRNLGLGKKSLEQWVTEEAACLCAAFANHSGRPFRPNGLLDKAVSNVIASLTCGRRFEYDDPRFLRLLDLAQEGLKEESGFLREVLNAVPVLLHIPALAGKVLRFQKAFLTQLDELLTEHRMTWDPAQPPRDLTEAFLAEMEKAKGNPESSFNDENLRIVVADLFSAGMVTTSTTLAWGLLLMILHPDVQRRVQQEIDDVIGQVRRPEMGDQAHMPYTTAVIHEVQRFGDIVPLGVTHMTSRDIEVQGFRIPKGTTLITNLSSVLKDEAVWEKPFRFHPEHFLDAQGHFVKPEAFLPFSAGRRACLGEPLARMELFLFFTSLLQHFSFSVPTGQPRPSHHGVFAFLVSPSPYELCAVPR
Chain of Genome polyprotein (P29990 2492-3391 limits assumed): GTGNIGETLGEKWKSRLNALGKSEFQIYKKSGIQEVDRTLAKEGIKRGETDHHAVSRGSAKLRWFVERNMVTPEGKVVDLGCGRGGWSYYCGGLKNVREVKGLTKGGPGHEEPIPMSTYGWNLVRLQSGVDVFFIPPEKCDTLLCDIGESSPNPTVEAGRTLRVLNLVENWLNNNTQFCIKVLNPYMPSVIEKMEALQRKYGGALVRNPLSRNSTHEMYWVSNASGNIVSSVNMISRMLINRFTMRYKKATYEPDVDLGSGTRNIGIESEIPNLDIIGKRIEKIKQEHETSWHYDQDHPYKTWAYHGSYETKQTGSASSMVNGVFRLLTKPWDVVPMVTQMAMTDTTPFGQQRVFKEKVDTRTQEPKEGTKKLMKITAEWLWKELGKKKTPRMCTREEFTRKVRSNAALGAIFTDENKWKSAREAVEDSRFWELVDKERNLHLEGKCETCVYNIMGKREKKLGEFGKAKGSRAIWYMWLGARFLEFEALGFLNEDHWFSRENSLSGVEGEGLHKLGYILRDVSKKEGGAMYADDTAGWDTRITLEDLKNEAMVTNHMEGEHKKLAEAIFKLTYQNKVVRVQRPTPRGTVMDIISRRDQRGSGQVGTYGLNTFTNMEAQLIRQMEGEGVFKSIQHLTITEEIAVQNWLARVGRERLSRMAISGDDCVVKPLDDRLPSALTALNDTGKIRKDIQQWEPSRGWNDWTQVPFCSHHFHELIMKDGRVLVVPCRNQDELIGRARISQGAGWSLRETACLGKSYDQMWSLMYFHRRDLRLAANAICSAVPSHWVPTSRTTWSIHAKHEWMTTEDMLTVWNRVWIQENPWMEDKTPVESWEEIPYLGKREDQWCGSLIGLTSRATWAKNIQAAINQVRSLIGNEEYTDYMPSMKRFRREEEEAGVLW
Chain of Cytochrome P450 2C9 (P11712 whole entry): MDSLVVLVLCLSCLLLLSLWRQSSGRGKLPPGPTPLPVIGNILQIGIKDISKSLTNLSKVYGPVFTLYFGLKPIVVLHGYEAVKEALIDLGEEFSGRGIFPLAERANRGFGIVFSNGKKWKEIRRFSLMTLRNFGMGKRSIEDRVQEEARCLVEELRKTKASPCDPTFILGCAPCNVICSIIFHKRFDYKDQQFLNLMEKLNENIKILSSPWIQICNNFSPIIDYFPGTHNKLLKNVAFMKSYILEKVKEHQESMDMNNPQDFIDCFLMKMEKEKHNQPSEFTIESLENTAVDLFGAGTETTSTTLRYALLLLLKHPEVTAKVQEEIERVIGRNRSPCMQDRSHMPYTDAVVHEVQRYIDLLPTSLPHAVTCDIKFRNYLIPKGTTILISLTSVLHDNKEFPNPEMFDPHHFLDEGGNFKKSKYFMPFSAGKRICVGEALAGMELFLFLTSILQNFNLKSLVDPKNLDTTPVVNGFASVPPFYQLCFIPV
Chain of Tumor necrosis factor (P01375 whole entry, the tested form may be a part): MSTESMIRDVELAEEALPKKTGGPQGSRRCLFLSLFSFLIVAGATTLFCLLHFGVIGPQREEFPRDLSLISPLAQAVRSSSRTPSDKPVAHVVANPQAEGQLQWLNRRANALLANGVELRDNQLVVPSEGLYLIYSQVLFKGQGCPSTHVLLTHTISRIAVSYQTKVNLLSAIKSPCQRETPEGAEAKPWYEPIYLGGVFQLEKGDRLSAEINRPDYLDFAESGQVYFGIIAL
Chain of Induced myeloid leukemia cell differentiation protein Mcl-1 (Q07820 whole entry): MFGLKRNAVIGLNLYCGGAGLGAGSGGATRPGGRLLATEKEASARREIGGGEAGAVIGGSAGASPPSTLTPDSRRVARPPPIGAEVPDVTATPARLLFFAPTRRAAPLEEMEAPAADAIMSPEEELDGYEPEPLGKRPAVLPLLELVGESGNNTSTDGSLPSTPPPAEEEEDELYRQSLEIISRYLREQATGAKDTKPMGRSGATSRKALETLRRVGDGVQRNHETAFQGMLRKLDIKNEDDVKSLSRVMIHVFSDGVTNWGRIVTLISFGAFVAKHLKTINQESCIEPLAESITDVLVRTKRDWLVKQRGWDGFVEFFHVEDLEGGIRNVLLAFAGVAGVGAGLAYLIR
Chain of CAAX prenyl protease 1 (P47154 whole entry): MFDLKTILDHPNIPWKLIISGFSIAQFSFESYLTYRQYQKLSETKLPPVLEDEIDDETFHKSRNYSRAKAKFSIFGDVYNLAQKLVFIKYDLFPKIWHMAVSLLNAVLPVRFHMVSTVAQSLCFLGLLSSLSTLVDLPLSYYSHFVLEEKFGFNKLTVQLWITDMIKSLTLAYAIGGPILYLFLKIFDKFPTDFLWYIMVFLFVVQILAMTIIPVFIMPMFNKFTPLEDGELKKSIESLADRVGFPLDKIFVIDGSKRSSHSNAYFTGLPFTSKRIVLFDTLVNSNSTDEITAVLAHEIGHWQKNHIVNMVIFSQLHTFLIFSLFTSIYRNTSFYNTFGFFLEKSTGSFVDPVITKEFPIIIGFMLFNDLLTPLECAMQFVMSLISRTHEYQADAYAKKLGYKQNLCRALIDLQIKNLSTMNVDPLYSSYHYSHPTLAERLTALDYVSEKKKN
Chain of CAAX prenyl protease 2 (Homo sapiens, UniProt Q9Y256) (Q9Y256 whole entry): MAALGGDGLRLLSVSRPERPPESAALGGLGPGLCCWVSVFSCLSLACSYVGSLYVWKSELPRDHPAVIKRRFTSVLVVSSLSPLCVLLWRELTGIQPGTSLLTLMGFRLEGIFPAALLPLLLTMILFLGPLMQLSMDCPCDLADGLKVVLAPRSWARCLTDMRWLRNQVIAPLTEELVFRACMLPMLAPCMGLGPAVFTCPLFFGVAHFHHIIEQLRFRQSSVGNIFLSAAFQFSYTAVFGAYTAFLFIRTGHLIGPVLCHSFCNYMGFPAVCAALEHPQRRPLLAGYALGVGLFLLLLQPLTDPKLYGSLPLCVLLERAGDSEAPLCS
Chain of Trypsin (P00761 whole entry): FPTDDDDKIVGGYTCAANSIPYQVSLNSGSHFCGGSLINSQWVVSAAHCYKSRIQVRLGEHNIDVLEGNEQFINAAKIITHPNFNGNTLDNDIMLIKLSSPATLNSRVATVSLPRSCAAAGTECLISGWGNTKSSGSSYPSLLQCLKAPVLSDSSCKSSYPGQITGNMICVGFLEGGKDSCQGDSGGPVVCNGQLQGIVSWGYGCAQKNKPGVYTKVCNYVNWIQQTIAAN
Chain of FAD-linked sulfhydryl oxidase ALR (P55789 whole entry): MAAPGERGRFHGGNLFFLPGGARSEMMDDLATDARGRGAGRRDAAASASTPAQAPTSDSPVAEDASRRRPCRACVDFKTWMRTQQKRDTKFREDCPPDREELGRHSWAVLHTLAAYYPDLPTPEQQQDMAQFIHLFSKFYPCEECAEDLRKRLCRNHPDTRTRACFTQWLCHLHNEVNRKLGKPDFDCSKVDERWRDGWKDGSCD
Chain of CAAX prenyl protease 2 (Saccharomyces cerevisiae S288c, UniProt Q03530) (Q03530 whole entry): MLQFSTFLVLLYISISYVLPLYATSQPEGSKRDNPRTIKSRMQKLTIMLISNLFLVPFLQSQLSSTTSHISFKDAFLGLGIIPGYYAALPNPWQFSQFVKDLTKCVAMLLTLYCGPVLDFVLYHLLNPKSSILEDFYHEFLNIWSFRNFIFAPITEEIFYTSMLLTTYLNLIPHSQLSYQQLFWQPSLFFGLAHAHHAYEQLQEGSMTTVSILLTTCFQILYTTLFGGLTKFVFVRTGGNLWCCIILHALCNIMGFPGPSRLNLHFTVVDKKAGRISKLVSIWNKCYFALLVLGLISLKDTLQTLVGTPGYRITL

AC50 [1]: 0.0794 µM (inconclusive)
AC50 [2]: inconclusive
Compound: Nn1c(SCC(=O)N2CCOCC2)nnc1-c1ccccc1Cl

IC50 [3]: < 0.4 µM (not active)
AC50 [4]: 13.8 µM (active)
AC50 [5]: 4.78 µM (active)
IC50 [6]: 22.7 µM (active)
IC50 [7]: 3.24 µM (active)
IC50 [8]: 2.6 µM (active)
AC50 [9]: 2.1 µM (active)
AC50 [11]: 5.53 µM (active)
IC50 [12]: 64.1 µM (active)
AC50 [13]: 5.18 µM (active)
Compound: O=C(O)c1ccc(N/N=C/c2cn(Cc3ccccc3F)c3ccccc23)cc1
IC50 [10]: 2.92 µM (active)

Compound: COC(=O)c1ccc2nc(Nc3nc4c(F)cc(F)cc4s3)sc2c1
EC50 [14]: 3.03 µM (active)
IC50 [15]: 0.666 µM (active)
IC50 [16]: > 20 µM (inactive)
EC50 [17]: 0.3 µM (active)
IC50 [18]: 1.92 µM (active)
IC50 [19]: > 20 µM (inactive)
IC50 [20]: 2.8 µM (active)
IC50 [21]: 0.23 µM (active)
IC50 [22]: 0.429 µM (active)
IC50 [23]: > 80 µM (inactive)
IC50 [24]: 9.76 µM (active)
